The numbers were not newly measured in patent US6996473B2, “Method for screening and producing compound libraries” (Lion Bioscience AG, priority 1998, dated 2006), which cites them from elsewhere.

One may read the Solubility as the concentration that dissolves in the medium under given conditions. The term Cmax denotes the highest concentration seen after dosing. Broadly, the Tmax is the time at which the peak concentration occurs.

Counter-ions that a name gives are not always drawn. Like-named read-outs stand apart in the source and are kept apart here.

One series relates to rabbit intestinal tissue. To be noted: intestinal transport mechanism represented by the standard.
The conditions of series [1]: Stomach.

For `O=C[C@H](O)[C@@H](O)[C@H](O)[C@H](O)CO` [D-glucose], the Transport mechanism entry with rabbit intestinal tissue was “Carrier-mediated Influx”.
As to `Nc1nc(O)c2ncn(COC(CO)CO)c2n1` [Gancyclovir, 9-(1,3-dihydroxy-2-propoxymethyl) guanine, monosodium salt], the Solubility in series [1] is 31 mg/mL. Moreover, the Cmax runs as follows: (Clinical 1505a) 550 ng/mL; (Clinical 1505b) 590 ng/mL. The time of peak concentration (Tmax) was 1.43 h (Clinical 1505a) and 1.43 h (Clinical 1505b). For the same compound, where the note is “fasted patients, oral”, the “bioavailability of fasted patients in clinical trials” value was 3-20%.
For the compound `OC[C@@H](O)[C@@H](O)[C@H](O)[C@H](O)CO` [mannitol], the Transport mechanism entry in the series with rabbit intestinal tissue is given as “Passive Paracellular”.
